Data as given in patent publication US20160199469A1, “ONCOLOGY VACCINE” (priority 2013, published 2016).

Assays:
Type in all cases: cell-based, human
[1] = test system: PBMC from individuals with non-small cell lung cancer (NSCLC); experiment: IFNγ ELISpot after 7 day short-term culture, NSCLC patients (Example 3); settings: for responder frequency: NSCLC patients, percentage of patients with peptide responses of greater than 500 SFC/million, peptide pools 5 μg/peptide/mL; for IFN-γ ELISpot spot intensity in NSCLC patients compared with healthy subjects: FIG. 7, Mann-Whitney unpaired test
[2] = test system: PBMC from healthy subjects; experiment: Peptide-specific T cell responses by IFN-γ ELISpot after short term culture, healthy subjects (Example 2); settings: positive response = SFC/10^6 PBMC greater than 20, pools of overlapping 18-mer peptides at 5 μg/peptide/mL
Protocol: Peptide-specific T cell responses were evaluated in peripheral mononuclear cells obtained from healthy subjects. After thawing, PBMC were cultured in 24-well flat bottom plates (or 48-well bottom plates) at a density of 1 million cells per ml in the presence of culture medium (RPMI 1640 Medium, Glutamax™ (Life Technologies) with 5% (v/v) human AB Serum (PAA Laboratories Ltd)) and a pool of peptides (composed of P103-P53, P513_MAGE3, P679_MAGE3, P805_NY_ESO1, P1575_HER, P2238-HER, P3825_MUC1, P3776_MUC1, P4540_hTERT, P4575_hTERT, P5400_MAGE1, P-HAGE) at a total final concentration of 20 μg/mL.
The plates were incubated at 37° C. in a 5% CO2 incubator and on Day 4, recombinant human IL-2 and IL-15 (R&D Systems) were added to each well at final concentrations of 10 IU/ml and 10 ng/mL respectively. On Day 7, PBMC cultures were removed and washed in culture medium and replaced back into wells in culture medium containing 10 IU/mL of IL-2. After overnight resting at 37° C. in a 5% CO2 incubator, cells were removed, counted and assessed for viability. PVDF plates (MSIPS4510, Millipore) were coated with anti-human IFN-γ antibody (R&D systems) and incubated overnight at 4° C. Plates were then washed and incubated with blocking buffer (1% BSA (PAA), 5% sucrose (Fisher), Dulbecco's-PBS (Invitrogen)) for at least 1 hour and finally washed with culture medium before use. […] After 18 hours of culture, plates were washed and incubated with a biotinylated secondary anti-human IFN-γ antibody (R&D systems) followed by streptavidin-AP. Production of IFN-γ was detected using the ELISpot blue colour module (R&D Systems) as per manufacturer's instructions. Plates were scanned and wells were counted using an automated ELISpot plate reading system equipped with spot counting software (Cellular Technology Limited). Results are expressed as Spot Forming Cells (SFC)/10^6 PBMC and background responses represented by IFNγ SFC of PBMC in culture medium alone have been subtracted for each subject. Positive response was defined as number of Spot Forming Cells (SFC)/10^6 PBMC greater than 20.

PBMC from NSCLC subjects = experiment: Intracellular cytokine staining (ICS) of CD4+ and CD8+ T cells after short-term culture; settings: for Th1 cytokine-producing CD4 and/or CD8 T cell responses: intracellular cytokine staining, FIGS. 8, 9 and 10; for level of response among the peptides in the mixture: short term culture with a combination of peptide pools
Protocol: PBMC were cultured in 2 mL culture medium (CM, RPMI1640 Glutamax supplemented with 5% untreated human AB serum (PAA) and gentamicin) in 24 well cell culture plates at a concentration of 1×10^6 cells/mL for a total of 7 days. Each pool was added at 20 μg/mL total peptide final concentration. On day 1, IL-7 (Peprotech) and IL-2 (R&D Systems) were added to the cultures to a final concentration of 5 ng/mL and 10 IU/mL respectively. On day 3, IL-2 was added at a concentration of 10 IU/mL. On day 7, cells were harvested from cell culture plates washed with culture medium and counted using TruCount (BD Biosciences) before analysis using IFNγ (interferon gamma) ELISpot assay or intracellular cytokine staining (ICS) as described below.
Short term culture of PBMC were prepared as described above, except culture conditions 1 and 2 were replaced with alternative culture conditions 1 to 5 below, each of which involves stimulation with a different combination of peptide pools:
Culture 5: P-P805_NY_ESO1
Cells from the short-term cultures were plated in a 96 well round bottom plate at 5×10^5 PBMC/well stimulated with individual peptide pools used at a concentration of 5 μg/peptide/mL. Plates were incubated at 37° C. in a 5% CO2 incubator for 20h. PMA/Ionomycin was added to respective wells and Golgi plug (BD Biosciences) was added to all wells after the first 3h of the assay. The cells were harvested and washed with PBS+0.1% BSA (wash buffer) and stained with anti-CD3, anti-CD4 and anti-CD8 (BD Biosciences) for 30 minutes at 4° C. After another wash, the cells were fixed and permeabilised with 100 μL of Cytofix/Cytoperm solution (BD Biosciences) for 20 minutes at 4° C., followed by two washes with 1× Perm/Wash solution (BD Biosciences). Finally, cells were stained with ant-IL-2-FITC, anti-IFNγ-PE and anti-TNFα PerCP-Cy5.5 (BD Biosciences) for 30 minutes at 4° C. Samples were acquired on a FACSCanto II flow cytometer (BD Biosciences). Gating was based on isotype control antibody staining and media stimulated samples for each subject.

[3] = test system: PBMC from healthy individuals; experiment: IFNγ ELISpot after 7 day short-term culture, healthy individuals (Example 3); settings: healthy subjects (FIGS. 3 and 5)

| Sequence | responder frequency [1] [%] | frequency of responding subjects [2] [%] | IFN-γ ELISpot spot intensity in NSCLC patients compared with healthy subjects [1] | Th1 cytokine-producing CD4 and/or CD8 T cell responses (PBMC from NSCLC subjects) | also measured |
| --- | --- | --- | --- | --- | --- |
| AFLSVKKQFEELTLGEFLKLDRERAKNKIAKETNNKKKE (listed as Homo sapiens) [P991_SURVIVIN] | 14.51 |  |  |  |  |
| AGIRRDGLLLRLVDDFLLVTPHLTHAKTFLRTLVRGVPEYG (listed as Homo sapiens) [P4862_TERT] |  |  |  |  | responder frequency ([1]; listed as P4862_hTERT): 7.93% |
| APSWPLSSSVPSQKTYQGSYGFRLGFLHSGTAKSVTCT (listed as Homo sapiens) [P103-P53] |  | 100 | significantly lower | ability to promote Th1 cytokine-producing CD4 and/or CD8 T cell responses |  |
| EFQAALSRKVAELVHFLLLKYRAREPVTKAEMLG (listed as Homo sapiens) [P513_MAGE3] | 18.46 | 50 |  |  |  |
| EMFLQIYKQGGFLGLSNIKFRPGSVVVQLTLAFREGTINVH (listed as Homo sapiens) [P3825_MUC1] | 8.06 | 17 |  |  |  |
| GAQYRIHTHGVFRGIQDVRRVPGVAPTLVRSASETSEKRPF (listed as Homo sapiens) [P1331_WT1] | 5.08 |  |  |  |  |
| GENVKIPVAIKVLRENTSPKANKEILDEAYVMAGVGSPYVSRKK (listed as Homo sapiens) [P2238-HER] | 10.00 | 83 |  |  |  |
| HREARPALLTSRLRFIPKPDGLRPIVNMDYVVGARTFRREK [P4616_hTERT] | 37.50 |  |  | ability to promote Th1 cytokine-producing CD4 and/or CD8 T cell responses |  |
| HRLREEILAKFLHWLMSVYVVELLRSFFYVTETTFQKNR (listed as Homo sapiens) [P4540_hTERT] | 23.43 | 67 | significantly lower | ability to promote Th1 cytokine-producing CD4 and/or CD8 T cell responses |  |
| ILESLFRAVITKKVADLVGFLLLKYRAREPVTKAEMLESVIK (listed as Homo sapiens) [P5232_MAGE1] | 32.25 |  | significantly lower | ability to promote Th1 cytokine-producing CD4 and/or CD8 T cell responses |  |
| LGLSYDGLLGDNQIMPKAGLLIIVLAIIAREGD (listed as Homo sapiens) [P590-MAGE3] | 15.87 |  |  |  |  |
| MTPGTQSPFFLLLLLTVLTVVTGSGHASSTPGG (listed as Homo sapiens) [P2753_MUC1] | 4.76 |  |  |  |  |
| PALGSTAPPVHNVTSASGSASGSASTLVHNGTSARATTTPASK (listed as Homo sapiens) [P3698_MUC1] | 14.06 |  |  |  |  |
| PARYEFLWGPRALAETSYVKVLEYVIKVSARVRFFFPSLREA (listed as Homo sapiens) [P5400_MAGE1] | 27.41 | 100 | significantly lower | ability to promote Th1 cytokine-producing CD4 and/or CD8 T cell responses | level of response among the peptides in the mixture (PBMC from NSCLC subjects): highest level of response |
| PDGPGGNAGGPGEAGATGGRGPRGAGAARASGPGGGAP (listed as Homo sapiens) [P750-NYESO, used as a negative control peptide] | 3.12 |  |  |  | magnitude of response and responder frequency ([1]; NSCLC patients (FIGS. 2 and 4)): amongst the lowest responding peptides; magnitude of response and responder frequency [3]: amongst the lowest responding peptides |
| QTGTGKTLCYLMPGFIHLVLQPSLKGQRNRPGMLV (listed as Homo sapiens) [P-HAGE] |  | 50 | significantly lower | ability to promote Th1 cytokine-producing CD4 and/or CD8 T cell responses |  |
| RAVRSLLRSHYREVLPLATFVRRLGPQGWRLVQRGDPAAFRA (listed as Homo sapiens) [P4020_hTERT] | 32.81 |  | significantly lower | ability to promote Th1 cytokine-producing CD4 and/or CD8 T cell responses |  |
| RGPESRLLEFYLAMPFATPMEAELARRSLAQDAPPLPVPG (listed as Homo sapiens) [P805_NY_ESO1] | 34.92 | 50 | significantly lower | ability to promote Th1 cytokine-producing CD4 and/or CD8 T cell responses | level of response among the peptides in the mixture (PBMC from NSCLC subjects): highest level of response |
| RLLQLHITMPFSSPMEAELVRRILSRDAAPLPRPGAVL (listed as Homo sapiens) [P5525_LAGE1] | 31.03 |  | significantly lower | ability to promote Th1 cytokine-producing CD4 and/or CD8 T cell responses |  |
| RTFRREKRAERLTSRVKALFSVLNYERARRPGLLGASVLGLDDI (listed as Homo sapiens) [P4650_hTERT] | 38.70 |  | significantly lower | ability to promote Th1 cytokine-producing CD4 and/or CD8 T cell responses |  |
| SVVGNWQYFFPVIFSKASSSLQLVEGIELMEVDPIGHLYIF (SVVGNWQYFFPVIFSKASSSLQLVFGIELMEVDPIGHLYIF; listed as Homo sapiens) [P550_MAGE3] |  |  | significantly lower | ability to promote Th1 cytokine-producing CD4 and/or CD8 T cell responses | level of response among the peptides in the mixture (PBMC from NSCLC subjects): highest level of response |
| TFQKNRLFFYRKSVWSKLQSIGIRQHLKRVQLRELSEAEVR (listed as Homo sapiens) [P4575_hTERT] |  | 100 |  | ability to promote Th1 cytokine-producing CD4 and/or CD8 T cell responses |  |
| TSSNHSTSPQLSTGVSFFFLSFHISNLQFNSSLEDPST (listed as Homo sapiens) [P3776_MUC1] | 4.76 | 100 |  |  |  |
| VQGYVLIAHNQVRQVPLQRLRIVRGTQLFEDNYALAVL (listed as Homo sapiens) [P1575_HER] | 16.12 | 100 |  |  |  |
| YEFLWGPRALVETSYVKVLHHMVKISGGPHISYPPLH (listed as Homo sapiens) [P679_MAGE3] | 28.57 | 80 | significantly lower | ability to promote Th1 cytokine-producing CD4 and/or CD8 T cell responses |  |
